In patent publication US20230127944A1, “BROAD-SPECTRUM CARBAPENEMS” (priority 2019, published 2023):
≈ marks a conversion by molar mass, not a printed value.

Assays:
Format in all cases: cell-based
[1] = system: P. aeruginosa 35151 (hyper-permeable strain); assay: broth microdilution MIC assay, P. aeruginosa 35151; settings: Pseudomonas aeruginosa, read-out: MIC, P. aeruginosa 35151
Procedure: (§1) To determine the ability of test compounds to inhibit the growth of bacterial strains, classic cell-based broth microdilution MIC assays were employed. MIC assays are performed according to CLSI methods except where otherwise noted (CLSI, 2011 and CLSI, 2009). The reference strains S. aureus ATCC 29213 (methicillin sensitive), S. aureus ATCC 33591 (methicillin-resistant), E. coli ATCC 25922 (wild-type/QC strain), P. aeruginosa ATCC 27853 (wild-type/QC strain), and the clinical isolate P. aeruginosa PA 8 were used to determine the ability of the exemplary carbapenem compounds to inhibit bacterial growth. An expanded panel of methicillin resistance S. aureus (MRSA) and Pseudomonas was also used to determine the ability of exemplary carbapenem compounds to inhibit bacterial growth across a broader representation of those species. To determine activity in MRSA and in addition to S. aureus ATCC 33591, S. aureus USA 300 and USA 600, some of the most common clones found to cause human infection, were also used. To further gauge the impact on the carbapenem compounds due to various resistance mechanisms in Pseudomonas, the following strains were included: P. aeruginosa 35151 (hyper-permeable strain), P. aeruginosa ΔmexAB-OprM (an efflux pump knockout), and P. aeruginosa Paβ-173 (a clinical isolate of reduced carbapenem susceptibility). Briefly, cryo-preserved bacterial cultures of clinical strains are streaked for isolation on appropriate agar medium, in this case Mueller Hinton II agar. Following incubation to allow formation of colonies, these plates are sealed with parafilm and stored refrigerated for up to two weeks. For preparation of assay inocula and to ensure low variability, at least 5 colonies are picked from the agar plates with an inoculating loop and aseptically transferred to a culture tube containing 3 mL of Mueller-Hinton Broth (supplemented with divalent cations to required levels based on Manufacturers' specification). The broth culture is grown for 3-5 hours at 37° C. with shaking at 200 rpm. Meanwhile, 2-fold serial dilutions of test compounds are conducted in a 96 well plate with a final volume of 75 μL per well at 2-fold the final desired concentration. After the dilution plates are set up the growing cultures are then diluted in a cuvette containing MH II broth and the optical density is measured at 600 nm. Inocula are diluted such that 75 μL of this culture in Mueller-Hinton Broth results in a starting bacterial concentration of 5×10^5 CFU/mL when added to the dilution plates. The plates are incubated 16-20 hours at 37° C. The MIC is read visually as the lowest concentration well with no bacterial growth.

[2] = system: E. coli ATCC 25922 (wild-type/QC strain); assay: broth microdilution MIC assay, E. coli 25922; settings: Escherichia coli, ATCC25922; read-out: MIC, E. coli 25922
Procedure: as §1

[3] = system: S. aureus ATCC 33591 (methicillin-resistant); assay: broth microdilution MIC assay, S. aureus 33591; settings: Staphylococcus aureus, ATCC33591; S. aureus 33591, methicillin-resistant; read-out: MIC, S. aureus 33591
Procedure: as §1

[4] = system: P. aeruginosa ATCC 27853 (wild-type/QC strain); assay: broth microdilution MIC assay, P. aeruginosa 27853; settings: Pseudomonas aeruginosa, ATCC27853; read-out: MIC, P. aeruginosa 27853
Procedure: as §1

P. aeruginosa Paeβ-17 = assay: broth microdilution MIC assay, P. aeruginosa Paeβ-17; settings: Pseudomonas aeruginosa, read-out: MIC, P. aeruginosa Paeβ-17
Procedure: as §1

[5] = system: P. aeruginosa ΔmexAB-OprM (an efflux pump knockout); assay: broth microdilution MIC assay, P. aeruginosa ΔmexAB-OprM; settings: Pseudomonas aeruginosa, read-out: MIC, P. aeruginosa ΔmexAB-OprM
Procedure: as §1

S. aureus USA 300 = assay: broth microdilution MIC assay, S. aureus USA300; settings: Staphylococcus aureus; S. aureus USA300 (MRSA); read-out: MIC, S. aureus USA300
Procedure: as §1

S. aureus USA 600 = assay: broth microdilution MIC assay, S. aureus USA600; settings: Staphylococcus aureus; S. aureus USA600 (MRSA); read-out: MIC, S. aureus USA600
Procedure: as §1

Structure (SMILES)	MIC [1] [µg/mL]	MIC [2] [µg/mL]	MIC [3] [µg/mL]	MIC [4] [µg/mL]	MIC (P. aeruginosa Paeβ-17) [µg/mL]	MIC [5] [µg/mL]	MIC (S. aureus USA 300) [µg/mL]	MIC (S. aureus USA 600) [µg/mL]
C[C@@H](O)[C@H]1C(=O)N2C(C(=O)O)=C(S[C@H]3C[C@H](N[C@H]4CC[C@H](N)C4)C3)[C@H](C)[C@H]12 [Example 67, (4R,5S,6S)-3-(((1S,3R)-3-(((1S,3S)-3-aminocyclopentyl)amino)cyclobutyl)thio)-6-((R)-1-hydroxyethyl)-4-methyl-7-oxo-1-azabicyclo[3.2.0]hept-2-ene-2-carboxylic acid]	< 1	< 1	8 to 32 (≈ 20.2 to 80.9 µM)	8 to 32 (≈ 20.2 to 80.9 µM)	8 to 32 (≈ 20.2 to 80.9 µM)	1 to 4 (≈ 2.53 to 10.1 µM)	8 to 32 (≈ 20.2 to 80.9 µM)	1 to 4 (≈ 2.53 to 10.1 µM)
C[C@@H](O)[C@H]1C(=O)N2C(C(=O)O)=C(SC3CN(C[C@@H]4CCN(C(=N)N)C4)C3)[C@H](C)[C@H]12 [Example 39, (4R,5S,6S)-3-((1-(((S)-1-carbamimidoylpyrrolidin-3-yl)methyl)azetidin-3-yl)thio)-6-((R)-1-hydroxyethyl)-4-methyl-7-oxo-1-azabicyclo[3.2.0]hept-2-ene-2-carboxylic acid]	1 to 4 (≈ 2.36 to 9.44 µM)	< 1	8 to 32 (≈ 18.9 to 75.6 µM)	8 to 32 (≈ 18.9 to 75.6 µM)	> 32	1 to 4 (≈ 2.36 to 9.44 µM)	1 to 4 (≈ 2.36 to 9.44 µM)	1 to 4 (≈ 2.36 to 9.44 µM)
C[C@@H](O)[C@H]1C(=O)N2C(C(=O)O)=C(SC3CN([C@H]4CCC[C@@H](N)C4)C3)[C@H](C)[C@H]12 [Example 15, (4R,5S,6S)-3-((1-((1S,3R)-3-aminocyclohexyl)azetidin-3-yl)thio)-6-((R)-1-hydroxyethyl)-4-methyl-7-oxo-1-azabicyclo[3.2.0]hept-2-ene-2-carboxylic acid]	< 1	< 1	8 to 32 (≈ 20.2 to 80.9 µM)	1 to 4 (≈ 2.53 to 10.1 µM)	8 to 32 (≈ 20.2 to 80.9 µM)	1 to 4 (≈ 2.53 to 10.1 µM)	1 to 4 (≈ 2.53 to 10.1 µM)	1 to 4 (≈ 2.53 to 10.1 µM)
C[C@@H](O)[C@H]1C(=O)N2C(C(=O)O)=C(S[C@H]3C[C@H](NC4CCN(C(=N)N)CC4)C3)[C@H](C)[C@H]12 [Example 48, (4R,5S,6S)-3-(((1R,3R)-3-((1-carbamimidoylpiperidin-4-yl)amino)cyclobutyl)thio)-6-((R)-1-hydroxyethyl)-4-methyl-7-oxo-1-azabicyclo[3.2.0]hept-2-ene-2-carboxylic acid]	< 1	< 1	8 to 32 (≈ 18.3 to 73.1 µM)	8 to 32 (≈ 18.3 to 73.1 µM)	8 to 32 (≈ 18.3 to 73.1 µM)	1 to 4 (≈ 2.29 to 9.14 µM)	1 to 4 (≈ 2.29 to 9.14 µM)	1 to 4 (≈ 2.29 to 9.14 µM)
C[C@@H](O)[C@H]1C(=O)N2C(C(=O)O)=C(S[C@@H]3CCN(Cc4cnc(N)nc4)C3)[C@H](C)[C@H]12 [Example 24, (4R,5S,6S)-3-(((R)-1-((2-aminopyrimidin-5-yl)methyl)pyrrolidin-3-yl)thio)-6-((R)-1-hydroxyethyl)-4-methyl-7-oxo-1-azabicyclo[3.2.0]hept-2-ene-2-carboxylic acid]	< 1	< 1	8 to 32 (≈ 19.1 to 76.3 µM)	8 to 32 (≈ 19.1 to 76.3 µM)	> 32	1 to 4 (≈ 2.38 to 9.54 µM)	1 to 4 (≈ 2.38 to 9.54 µM)	1 to 4 (≈ 2.38 to 9.54 µM)
C[C@@H](O)[C@H]1C(=O)N2C(C(=O)O)=C(SC3CN(C[C@H]4CCN(C(=N)N)C4)C3)[C@H](C)[C@H]12 [Example 46, (4R,5S,6S)-3-((1-(((R)-1-carbamimidoylpyrrolidin-3-yl)methyl)azetidin-3-yl)thio)-6-((R)-1-hydroxyethyl)-4-methyl-7-oxo-1-azabicyclo[3.2.0]hept-2-ene-2-carboxylic acid]	< 1	< 1	1 to 4 (≈ 2.36 to 9.44 µM)	1 to 4 (≈ 2.36 to 9.44 µM)	8 to 32 (≈ 18.9 to 75.6 µM)	1 to 4 (≈ 2.36 to 9.44 µM)	1 to 4 (≈ 2.36 to 9.44 µM)	1 to 4 (≈ 2.36 to 9.44 µM)
